Results published in ChEMBL document CHEMBL1129679 (J Med Chem, 1996).

Columns and labels:
Dihydrofolate reductase [1] = target: T1, Dihydrofolate reductase (Homo sapiens, UniProt P00374); assay: Inhibitory activity against Dihydrofolate reductase (DHFR) isolated from CCRF-CEM human leukemia cells in experiment 1; type: cell-free
T1 sequence (P00374 whole entry): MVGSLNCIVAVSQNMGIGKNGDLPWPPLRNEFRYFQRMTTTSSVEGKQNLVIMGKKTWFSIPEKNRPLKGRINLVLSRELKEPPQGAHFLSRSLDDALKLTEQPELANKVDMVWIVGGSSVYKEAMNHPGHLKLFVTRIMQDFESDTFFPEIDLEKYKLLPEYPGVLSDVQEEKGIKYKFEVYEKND

Dihydrofolate reductase [2] = target: T1, Dihydrofolate reductase; assay: Inhibitory activity against Dihydrofolate reductase (DHFR) isolated from CCRF-CEM human leukemia cells in experiment 2; type: cell-free

Row | IC50 (Dihydrofolate reductase [1]) | IC50 (Dihydrofolate reductase [2]) | Structure (SMILES)
1 | 0.84 nM |  | CN(Cc1cnc2nc(N)nc(N)c2n1)c1ccc(C(=O)N[C@H](C[C@@H](F)C(=O)O)C(=O)O)cc1
2 | 1.35 nM |  | CN(Cc1cnc2nc(N)nc(N)c2n1)c1ccc(C(=O)NC(CC(F)C(=O)O)C(=O)O)cc1 (racemic)
3 |  | 1.34 nM | CN(Cc1cnc2nc(N)nc(N)c2n1)c1ccc(C(=O)NC(C(=O)O)C(F)(F)CC(=O)O)cc1 (racemic)
